Patent US20110190235A1, “BORON-CONTAINING SMALL MOLECULES AS ANTIPROTOZOAL AGENTS” (Anacor Pharmaceuticals, Inc., priority 2009, published 2011)
≈ marks a conversion by molar mass, not a printed value.

Experiments:
[1] = Pharmacokinetic studies in rats (plasma, brain, CSF); format: in vivo; settings: for half-life: read-out: t½ (converted); for Cmax / AUC(0-t) / AUC(0-inf): normalized to 25 mg/kg; for AUC(0-t): read-out: Exposure/trapezoid AUC0-18; for AUC(0-inf): read-out: Exposure/trapezoid AUC0-inf
Method: Male Sprague Dawley rats weighing approximately 200 g received test article (E19 or 82) as a single oral gavage (OG) dose of approximately 25 mg/kg (approximately 10 animals per group).
All doses were administered as clear colorless solutions as in situ sodium salts in 5% (m/v) dextrose:2% (v/v) ethanol in DWI. All dose solutions were delivered at 2 mL/kg. Animals were fasted for at least 4 hours before dosing, and for 2 hours after dosing.
Blood and CSF samples and brain tissue were sampled from 1 animal/timepoint/group immediately before dosing and approximately 0.5, 1, 2, 3, 4, 6, 8, 12, 18 and 24 hr after dosing for full pharmacokinetic (plasma and CSF) and tissue (Brain) analysis.

[2] = Kinetic solubility by nephelometric (light scattering) method; format: physicochemical; settings: PBS pH 7.4
[3] = Pharmacokinetic studies in mice (plasma, brain); format: in vivo; settings: for Cmax: normalized to 25 mg/kg (nominal 25 mg/kg); for AUC(0-t) / AUC(0-inf): normalized to 25 mg/kg; for AUC(0-t): read-out: Exposure/trapezoid AUC0-18; for AUC(0-inf): read-out: Exposure/trapezoid AUC0-inf
[4] = male, Sprague Dawley, rat, CSF, oral, rats
[5] = male, Sprague Dawley, rat, brain, oral, rats
[6] = male, Sprague Dawley, rat, plasma, oral, rats
[7] = male, CD-1, mouse, brain, oral, mice
[8] = male, CD-1, mouse, plasma, oral, mice

In the case of `CC1(C)OB(O)c2cc(NC(=O)c3ccc(F)cc3C(F)(F)F)ccc21` [compound 82], the half-life ([1]; male, Sprague Dawley, rat, 25 mg/kg, CSF, oral, rats) is reported as 8.7 h, the half-life ([1]; male, Sprague Dawley, rat, 25 mg/kg, brain, oral, rats) is reported as 9.5 h and the CL/F ([1]; male, Sprague Dawley, rat, 25 mg/kg, plasma, oral, rats, read-out: Oral Clearance Cl/F (converted)) is reported as 0.092 L/h/kg. It also gave a half-life ([1]; male, Sprague Dawley, rat, 25 mg/kg, plasma, oral, rats) of 15.5 h, a Cmax [1, 4] of 1 µg/mL and an AUC(0-t) [1, 4] of 13.6 µg·h/mL. The AUC(0-inf) [1, 4] was 16.8 µg·h/mL, the Cmax [1, 5] was 7.9 µg/mL and the AUC(0-t) [1, 5] was 120 µg·h/mL. The AUC(0-inf) [1, 5] was 152 µg·h/mL, the Cmax [1, 6] was 17 µg/mL and the AUC(0-t) [1, 6] was 272 µg·h/mL. The AUC(0-inf) [1, 6] was 433 µg·h/mL, the “time levels in brain and CSF are above the in vitro MIC” value ([1]; nominal single oral dose of 25 mg/kg to rats) was “approximately 12 hours” and the “fold improved exposure in CSF over E19” value ([1]; rat, in vivo) was “approximately 4 fold”. For the same molecule, the “Fold improvement 82 vs. E19: Oral Clearance Cl/F” value ([1]; rat, in vivo, po) was 2.8 fold, the “Fold improvement 82 vs. E19: t½” value ([1]; rat, in vivo, po, CSF) was 2.8 fold and the “Fold improvement 82 vs. E19: t½” value ([1]; rat, in vivo, po, brain) was 3.7 fold. The “Fold improvement 82 vs. E19: t½” value ([1]; rat, in vivo, po, plasma) was 1.9 fold, the “Solubility” value [2] was 25 µM (≈ 9.18 µg/mL) and the CL/F ([3]; male, CD-1, mouse, 25 mg/kg, plasma, oral, mice, read-out: Oral Clearance Cl/F (converted)) was 0.196 L/h/kg. For the same molecule, the half-life ([3]; male, CD-1, mouse, 25 mg/kg, plasma, oral, mice, read-out: t½ (converted)) was 6.9 h, the Cmax [3, 7] was 7.7 µg/mL and the AUC(0-t) [3, 7] was 64.9 µg·h/mL. It also gave an AUC(0-inf) [3, 7] of 65.5 µg·h/mL, a Cmax [3, 8] of 9.4 µg/mL and an AUC(0-t) [3, 8] of 108 µg·h/mL. For the same molecule, the AUC(0-inf) [3, 8] was 128 µg·h/mL, the “brain concentrations relative to the MIC” value ([3]; mouse and rat, brain (and CSF)) was “maintains concentrations above the MIC for extended time periods” and the “fold improved exposure in brain tissue over E19” value ([3]; mouse, in vivo) was 6-12 fold. For the same molecule, the “Fold improvement 82 vs. E19: Oral Clearance Cl/F” value ([3]; mouse, in vivo, po) was 1.2 fold, the “Fold improvement 82 vs. E19: t½” value ([3]; mouse, in vivo, po) was 0.4 fold and the “fold improved plasma exposure (based on AUC) over E19” value ([3]; mouse, in vivo, po) was 2-4 fold. For the same molecule, the “Fold improvement 82 vs. E19: Cmax” value ([3]; mouse, in vivo, po, brain) was 1.6 fold, the “Fold improvement 82 vs. E19: Cmax” value ([3]; mouse, in vivo, po, plasma) was 1.2 fold and the “dose proportionality of brain exposure” value ([3]; oral delivery to mice) was “generally dose-proportional increases”. For the same molecule, the “dose proportionality of plasma exposure” value ([3]; oral delivery to mice) was “greater than proportional at doses above 20 mg/kg”, the “F (% of IV)” value ([3]; plasma, oral, mice) was 45% and the “plasma PK when administered to rodents” value ([3]; rodents, plasma) was “good exposure (AUC and Cmax), promising bioavailability, prolonged half-life, and low clearance”.
